The source of these data is patent publication US20180055835A1, “Method for Treating And Preventing Protozoal Infections” (priority 2016, published 2018).

The target in data set [1] is Leishmania donovani topoisomerase I (LdTOPILS). As to conditions: inhibitor of LdTOPILS; Roy A., et al., Biochemical Journal 2007; cited from earlier work.
A further data set has as its system malaria. The data set is described as follows: Case reports: relapse of malaria in patients given LDN. It counts as in vivo, human. As for the experimental part: • A patient with HIV suffering from malaria has had relapses at least twice a year for the last five years.
• A person has suffered on and off from malaria for 40 years. The patient was administered 4.5 mg of LDN per day, as an adjunct treatment with chemotherapy.

The subject of data set [2] is Py13XL malaria. Description: Prevention of malaria by naltrexone in mice (dosing 7 days before infection). Format: in vivo, BABL/C mice. As to conditions: oral, 7 days before infection, on 5 d, 9 mice per group. As for the experimental part: (§1) • 45 BABL/C mice, six weeks old, were divided into 5 groups, 9 mice for each group. […] The survival was recorded from the first day of infection and infected rate of malaria are recorded from the third day of infection by taking tail vein blood, smearing glass slide, Gimsa staining and checking parasitemia under microscope.

For data set [3], the system named is Py13XL malaria (P. falciparum). Described as above. It counts as in vivo, BABL/C mice. As to conditions: for more mice died: on 6 d. As for the experimental part:
as §1

Data set [4] deals with immune cells in peripheral blood. The data set is described as follows: Changes of immune parameters in peripheral blood post treatment, flow cytometry. It counts as in vivo, BABL/C mice. As to conditions: treatment group after low dose naltrexone. As for the experimental part:
(§2) • 45 BABL/C mice, six weeks old, were divided into 5 groups, 9 mice for each group. […] The survival was recorded from the third day of infection and infected rate of malaria are recorded by taking tail vein blood, smearing glass slide, Gimsa staining and checking parasitemia under microscope. • Finally changes of immune parameters in peripheral blood were measured by flow cytometry technology and made comparison to control.
(Flow cytometry measures light scatter and fluorescence of single cells or particles in a stream.)

The subject of data set [5] is Py13XL malaria. Description: Anti-malaria effect (treatment) with naltrexone in infected mice. Format: in vivo, BABL/C mice. As to conditions: for mice died: on 5 d. As for the experimental part: as §2
The mark [6] stands for this setting: 0.5 mg naltrexone per mouse, oral, 7 days before infection, 9 mice per group.
Where [7] appears, read: 1 mg naltrexone per mouse, oral, 7 days before infection, 9 mice per group.
Where [8] appears, read: 0.5 mg naltrexone treating group, oral daily 15 days from 2 d post infection, 9 mice per group.
Setting [9] is: 1 mg naltrexone treating group, oral daily 15 days from 2 d post infection, 9 mice per group.

The term IC50 denotes the concentration that gives 50% inhibition. As to `c1ccc2c(Cc3c[nH]c4ccccc34)c[nH]c2c1` [DIM], in data set [1], the IC50 is 1200 nM.

Turning to `O=C1CC[C@@]2(O)[C@H]3Cc4ccc(O)c5c4[C@@]2(CCN3CC2CC2)[C@H]1O5` [naltrexone], the “time without relapse of malaria” value is 24 months with malaria (patient with HIV, relapses at least twice a year before, 4.5 mg per day as adjunct treatment for HIV); “over 24 months” in the data set with malaria (person, malaria on and off for 40 years, 4.5 mg per day, adjunct with chemotherapy). Moreover, the mice died is reported as 1 mice in the data set with Py13XL malaria [2] (0.5 mg naltrexone per mouse); 1 mice in the data set on Py13XL malaria [2] (1 mg naltrexone per mouse); 4 mice with Py13XL malaria [2] (2 mg naltrexone per mouse); 2 mice in the data set on Py13XL malaria [5] (setting [8]); 0 mice in the data set with Py13XL malaria [5] (setting [9]); 5 mice with Py13XL malaria [5] (2 mg naltrexone group, oral daily from 2 d post infection, 9 mice per group). Moreover, in data set [3] (setting [6]), the “mice still alive at the end point” value worked out at 1 mice. Besides, the more mice died in data set [3] (setting [6]) came out at 7 mice; in data set [3] (setting [7]), 5 mice; in data set [3] (2 mg naltrexone per mouse, oral, 7 days before infection, 9 mice per group), 5 mice; with Py13XL malaria [5] (0.5 mg naltrexone treating group, oral daily 15 days from 2 d post infection, on 6 d, 9 mice per group), 4 mice; with Py13XL malaria [5] (1 mg naltrexone treating group, oral daily 15 days from 2 d post infection, on 6 d, 9 mice per group) it was 2 mice; with Py13XL malaria [5] (1 mg naltrexone treating group, oral daily 15 days from 2 d post infection, on 9 d, 9 mice per group), 1 mice. The molecule further came in with a more mice died with Py13XL malaria [5] (2 mg naltrexone group, oral daily from 2 d post infection, on 6 d, 9 mice per group) of 4 mice. In addition, the “protecting effect compared between dose groups” value in data set [3] (1 mg naltrexone per mouse versus 0.5 mg and 2 mg) is “best protecting effect”. The same molecule yielded a survival rate in data set [3] (1 mg naltrexone per mouse, oral, 7 days before infection) of 33.3%. Moreover, the “mice still alive till the end point” value in data set [3] (setting [7]) was found to be 3 mice. For the same molecule, the parasitemia result in data set [3] (1 mg naltrexone per mouse, surviving mice, on 20 d) is on record as “all infection parasitemia disappeared”; with Py13XL malaria [5] (1 mg naltrexone treating group, surviving mice, on 20 d) it was “parasitemia disappeared”. Further, in data set [4] (control 1.30 ± 0.13, P < 0.01), the Total nucleated cell was found to be 4.21 ± 0.75. For the same molecule, in data set [4] (control 4.22 ± 0.64, P < 0.01), the Treg cell is 2.15 ± 0.48. The molecule further registered an NK cell in data set [4] (control 7.58 ± 1.59, P < 0.01) of 20.39 ± 4.42. For the same molecule, in data set [4] (control 9.18 ± 0.26, P < 0.01), the Macrophage is recorded as 12.1 ± 0.56. Also, the “CD4+ T cell” value in data set [4] (control 22.65 ± 3.48, P < 0.01) was found to be 34.81 ± 5.78. The “CD8+ T cell” value in data set [4] (control 35.33 ± 3.62, P < 0.01) was 59.63 ± 3.78. Moreover, in data set [4] (control 48.90 ± 4.06, P < 0.01), the “CD3+ T cell” value is 67.04 ± 4.20. Besides, the “mice still alive for end point” value with Py13XL malaria [5] (setting [8]) is recorded as 3 mice. Further, in the data set on Py13XL malaria [5] (1 mg naltrexone group versus 0.5 mg and 2 mg), the “treatment effect compared between dose groups” value is reported as “best treatment”. Moreover, the “mice still alive till end point” value in the data set with Py13XL malaria [5] (setting [9]) is recorded as 6 mice. The toxicity to animals result in the data set on Py13XL malaria [5] (2 mg naltrexone, infected mice) was “shows toxicity”.
